These results are taken from ChEMBL document CHEMBL1759905, “Nonsteroidal 2,3-dihydroquinoline glucocorticoid receptor agonists with reduced PEPCK activation” (Bioorg Med Chem Lett, 2011).

Assay [1] has as its target T1, Glucocorticoid receptor (Homo sapiens) (UniProt P04150).
T1 sequence (whole entry): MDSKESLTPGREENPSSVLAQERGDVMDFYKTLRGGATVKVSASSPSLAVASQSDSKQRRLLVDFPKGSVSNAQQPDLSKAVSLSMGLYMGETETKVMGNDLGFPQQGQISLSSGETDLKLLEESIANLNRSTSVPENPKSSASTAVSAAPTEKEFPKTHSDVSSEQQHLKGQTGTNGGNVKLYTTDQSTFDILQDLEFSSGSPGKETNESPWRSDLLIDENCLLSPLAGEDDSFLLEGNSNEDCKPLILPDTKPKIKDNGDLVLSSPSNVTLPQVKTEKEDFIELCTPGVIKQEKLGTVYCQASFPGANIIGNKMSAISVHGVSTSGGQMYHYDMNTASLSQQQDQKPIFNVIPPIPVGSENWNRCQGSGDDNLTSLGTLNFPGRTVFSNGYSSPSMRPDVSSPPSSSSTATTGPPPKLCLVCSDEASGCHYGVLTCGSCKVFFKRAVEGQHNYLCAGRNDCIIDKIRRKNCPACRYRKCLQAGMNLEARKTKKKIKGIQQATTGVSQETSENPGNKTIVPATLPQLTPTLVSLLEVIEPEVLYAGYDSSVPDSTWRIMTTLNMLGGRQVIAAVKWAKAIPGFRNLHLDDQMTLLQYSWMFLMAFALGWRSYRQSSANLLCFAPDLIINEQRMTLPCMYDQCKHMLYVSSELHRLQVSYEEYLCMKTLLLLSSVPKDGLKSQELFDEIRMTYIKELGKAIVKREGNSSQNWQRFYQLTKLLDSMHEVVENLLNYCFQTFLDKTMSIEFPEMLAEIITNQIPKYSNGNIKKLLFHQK
Nature of the assay: Agonist activity at glucocorticoid receptor in human HepG2 cells co-transfected with GRE assessed as GRE activation by luciferase reporter gene assay relative to Dexamethasone. Also on record: concentration or dose not given beside the values. It counts as functional, cell-based. On the technique in general: In a reporter assay the amount or activity of a reporter protein is the signal.

For assay [2], the target named is T1, Glucocorticoid receptor (Homo sapiens). Nature of the assay: Agonist activity at glucocorticoid receptor in human HepG2 cells co-transfected with PEPCK assessed as GRE activation by luciferase reporter gene assay relative to Dexamethasone. It counts as functional, cell-based.
The target in assay [3] is T2, Glucocorticoid receptor (Homo sapiens, UniProt P04150).
T2 sequence (P04150 whole entry): T1 sequence (whole entry)
Nature of the assay: Transrepression activity at glucocorticoid receptor in human NHDF cells assessed as inhibition of IL-1beta-stimulated AP1 dependent IL-6 repression by ELISA. The format is cell-based.

For assay [4], the target named is T2, Glucocorticoid receptor. Nature of the assay: Displacement of radiolabeled Dexamethasone from glucocorticoid receptor expressed in baculovirus.
Assay [5] deals with T2, Glucocorticoid receptor. Description: Agonist activity at glucocorticoid receptor in human HepG2 cells co-transfected with PEPCK assessed as GRE activation by luciferase reporter gene assay. The format is functional, cell-based.
Assay [6] concerns the target T2, Glucocorticoid receptor. Nature of the assay: Transrepression activity at glucocorticoid receptor in human HepG2 cells assessed as inhibition of TNFalpha/IL1beta-stimulated NFkappaB-dependent E-selectin repression by luciferase reporter gene assay. It counts as cell-based.
The target in another assay is T3, Progesterone receptor (Homo sapiens, UniProt P06401).
T3 sequence (P06401 whole entry): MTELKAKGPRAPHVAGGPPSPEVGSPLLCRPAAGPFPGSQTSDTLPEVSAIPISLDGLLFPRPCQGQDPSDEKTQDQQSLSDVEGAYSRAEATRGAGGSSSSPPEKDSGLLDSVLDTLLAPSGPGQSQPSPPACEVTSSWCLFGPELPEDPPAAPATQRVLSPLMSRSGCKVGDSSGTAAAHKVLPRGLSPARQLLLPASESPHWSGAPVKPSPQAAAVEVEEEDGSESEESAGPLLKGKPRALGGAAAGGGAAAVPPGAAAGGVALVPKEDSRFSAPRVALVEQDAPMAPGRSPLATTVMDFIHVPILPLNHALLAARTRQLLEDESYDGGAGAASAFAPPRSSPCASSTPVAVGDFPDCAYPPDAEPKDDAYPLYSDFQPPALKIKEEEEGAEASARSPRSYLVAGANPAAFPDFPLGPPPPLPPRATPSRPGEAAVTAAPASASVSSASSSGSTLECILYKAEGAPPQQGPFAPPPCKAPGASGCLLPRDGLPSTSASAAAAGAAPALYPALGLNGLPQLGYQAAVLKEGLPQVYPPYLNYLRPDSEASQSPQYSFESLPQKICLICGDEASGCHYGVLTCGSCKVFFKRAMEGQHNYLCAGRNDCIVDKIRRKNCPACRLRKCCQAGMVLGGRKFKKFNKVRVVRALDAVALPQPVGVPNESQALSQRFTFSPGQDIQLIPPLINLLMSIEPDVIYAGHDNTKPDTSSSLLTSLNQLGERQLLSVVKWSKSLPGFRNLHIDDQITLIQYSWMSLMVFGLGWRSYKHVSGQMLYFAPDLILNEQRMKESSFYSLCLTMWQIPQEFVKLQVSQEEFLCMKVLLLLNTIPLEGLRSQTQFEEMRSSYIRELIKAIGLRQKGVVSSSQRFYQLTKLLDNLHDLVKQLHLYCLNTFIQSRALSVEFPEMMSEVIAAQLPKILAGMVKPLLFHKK
Nature of the assay: Binding affinity to progesterone receptor.

Assay [7] concerns the target T1, Glucocorticoid receptor (Homo sapiens). Nature of the assay: Transrepression activity at glucocorticoid receptor in human NHDF cells assessed as inhibition of IL-1beta-stimulated AP1 dependent IL-6 repression by ELISA relative to Dexamethasone. Also on record: concentration or dose not given beside the values. The format is cell-based. A general note: An ELISA detects its analyte on a solid surface through an enzyme-linked reagent.

In general, IC50 refers to the concentration needed to halve the response being measured. What is called Ki is a measure of affinity in units of concentration, obtained from inhibition or displacement. A word on the EC50: it is the concentration giving half of the maximal effect. `Cc1c[nH]c2c(-c3c(F)cc4c(c3F)/C(=N/OC(C)(C)CO)CC(C)(C)N4)cccc12`: the values for the Activity in assay [1], in assay [2] and in assay [7] were 130%, 22% and 67%, respectively. Further, the IC50 stood at 65 nM on Glucocorticoid receptor [3] and 12 nM on Glucocorticoid receptor [6]. Further, the figures for the Ki at Glucocorticoid receptor [4] and on Progesterone receptor were 0.8 nM and 950 nM, respectively. Also, the concentration giving a half-maximal response (EC50) on Glucocorticoid receptor [5] came to 350 nM.
`Cc1c[nH]c2c(-c3c(F)cc4c(c3F)/C(=N/OC(C)C)CC(C)(C)N4)cccc12`: the Activity was found to be 138% in assay [1], 35% in assay [2] and 77% in assay [7]. For the same compound, the figures for the IC50 on Glucocorticoid receptor [3] and at Glucocorticoid receptor [6] were 11 nM and 4.9 nM, respectively. Besides, the Ki at Glucocorticoid receptor [4] worked out at 2.7 nM; at Progesterone receptor, 380 nM. Moreover, the EC50 on Glucocorticoid receptor [5] stood at 250 nM.
As for `CC1(C)C/C(=N\OC(C)(C)C)c2c(cc(F)c(-c3cccc4c(Cl)c[nH]c34)c2F)N1`, the Activity turned out to be 97% in assay [1], 27% in assay [2] and 83% in assay [7]. For the same compound, the IC50 on Glucocorticoid receptor [3] came to 19 nM; at Glucocorticoid receptor [6], 4 nM. Further, the values for the Ki at Glucocorticoid receptor [4] and at Progesterone receptor were 2 nM and 570 nM, respectively. For the same compound, the EC50 at Glucocorticoid receptor [5] is 67 nM.
For the compound `CO/N=C1/c2c(cc(F)c(-c3cccc4c(C)c[nH]c34)c2F)NC(C)(C)C1O` (racemic), the Activity in assay [1] amounted to 150%; in assay [2], 79%; in assay [7], 98%. The IC50 at Glucocorticoid receptor [3] is 17 nM; at Glucocorticoid receptor [6], 3.4 nM. The values for the Ki at Glucocorticoid receptor [4] and at Progesterone receptor were 3.8 nM and 3800 nM, respectively. Further, at Glucocorticoid receptor [5], the EC50 came out at 560 nM.
Consider `Cc1c[nH]c2c(-c3c(F)cc4c(c3F)/C(=N/OC(C)(C)C)CC(C)(C)N4)cccc12`, for which the Activity in assay [1] is 97%; in assay [2] it was 28%; in assay [7], 73%. The IC50 at Glucocorticoid receptor [3] came out at 13 nM; at Glucocorticoid receptor [6], 5.6 nM. Moreover, the results for the Ki at Glucocorticoid receptor [4] and at Progesterone receptor were 2.2 nM and 220 nM, respectively. Besides, the EC50 on Glucocorticoid receptor [5] is 70 nM.
